How the values were obtained:
GSK-3β = test: Phosphorylation of GSK-3β at Ser9 in hypothalamus of mouse under or not under restraint stress (Western blotting); format: in vivo; conditions: total 11 days, FIG. 6
[1] = tested on: mouse under a restraint stress; test: Forced swimming test after restraint stress (depression model); format: in vivo; conditions: restraint-stressed mouse, 0.5, 0.75, 1.0, 5.0 mg/kg orally once per day, total 11 days; FIG. 3
Description: At present, in the study of depression using the behavior of an experiment animal, the efficacy of antidepressant and reaction to stress, which are the both sides of depression, are mainly utilized. In a depression model, a method for inducing depression in an animal by imposing a stress such as solitude, electric shock, forced immersion in water, peripheral environment, temperature change and the like is mainly used. In this Experimental Example, a restraint stress animal model was used. A symptom corresponding to depression was induced by loading a stress by enclosing an experiment animal in a narrow space inhibiting movement, and whether an antidepressive effect was observed when a test compound was administered was examined. Male C57BL/6J mouse at 8-week-old was purchased from Japan SLC Inc. (Shizuoka. Japan). The mouse was enclosed in a 11.5 cm plastic cylinder (diameter 2.7 cm) for 3 hr per day, which was performed for 4 consecutive days to impart a stress.
A forced swimming test is a behavioral test used for screening for an antidepressive effect of a compound. Also in this Experimental Example, a forced swimming test was performed according to a previous report after a restraint stress (Porsolt R D. Le Pichon M, Jalfre M. Depression: a new animal model sensitive, to antidepressant treatments. Nature 1977; 266:730-732.). […]

[2] = tested on: 5-HT1A serotonin receptor; test: 5-HT1A serotonin receptor on cellular membrane in hippocampus and hypothalamus of restraint-stressed mouse after forced swimming test (Western blotting); format: in vivo; conditions: 1 mg/kg orally once per day, total 11 days, hippocampus, hypothalamus, FIG. 4
[3] = tested on: 5-HT1A serotonin receptor; test: Analysis of 5-HT receptor trafficking in rat hippocampus and hypothalamus sections (Western blotting of cellular membrane and cytoplasm fractions); format: cell-based; conditions: DCP-LA 100 nM

In the case of `CCCCCC1CC1CC1CC1CCCCCCCC(=O)O` (stereo not drawn) [DCP-LA, 8-[2-(2-Pentyl-cyclopropylmethyl)-cyclopropyl]-octanoic acid], the “phosphorylation of GSK-3β (Ser9)” value (GSK-3β; irrespective of the presence or absence of a restraint stress, mouse hypothalamus, 1 mg/kg orally) is reported as “promote phosphorylation”, the “stress-induced suppression of phosphorylation of GSK-3β (Ser9)” value (GSK-3β; mouse under restraint stress, hypothalamus, 1 mg/kg orally once per day) is reported as “improves suppression of the phosphorylation” and the “immobility time in forced swimming test” value [1] is reported as “immobility time decreasing effect in a dose-dependent manner”. For the same compound, the “stress-induced decrease in 5-HT1A serotonin receptor on the cellular membrane” value [2] was “recovered”, the “expression of 5-HT1A serotonin receptor on the cellular membrane (ratio of cellular membrane to whole cells)” value ([3]; 20 min, rat hippocampus and hypothalamus sections, compared with 5-HT2A serotonin receptor, FIG. 1) was “selectively increased” and the “promoting action on cellular membrane trafficking of 5-HT1A serotonin receptor in the presence of inhibitors” value ([3]; rat hypothalamus section, GF109203X 100 nM, BoTX-A 0.1 U/ml, KN-93 3 μM, FIG. 2) was “significantly suppressed by BoTX and KN”.

Reference: US20160089352A1, “CELL MEMBRANE TRANSPORT PROMOTER FOR SELECTIVE 5-HT1A SEROTONIN RECEPTORS” (NISHIZAKI BIOINFORMATION RESEARCH INSTITUTE, priority 2013, published 2016)
